From US20100190805A1, “PREPARATION FOR THE TREATMENT OF EQUINE LAMINITIS” (BOEHRINGER INGELHEIM VETMEDICA GMBH, priority 2007, published 2010)

Key:
[1] = horses, cited from earlier work
[2] = system: horses suffering from acute laminitis; assay: Treatment of horses suffering from laminitis with allopurinol (case reports); format: in vivo, horse; conditions: oral allopurinol 1 to 50 mg/kg of body weight
Description: Thus there are also positive effects on the general condition. […] Only by treating with allopurinol is it possible to carry out this treatment as horses suffering acute pain cannot be fitted with supports.

Oc1ncnc2[nH]ncc12 [allopurinol]
bioavailability after oral administration ([1]; oral administration): 14.3% | sum of the areas under the concentration/time curves of allopurinol and oxypurinol after oral administration of allopurinol ([1]; oral versus intravenous allopurinol): identical to that of allopurinol administered intravenously | appetite / general condition [2]: appetite returns | inflammation [2]: decline after three days' treatment | lameness [2]: reduced | pain [2]: decline after three days' treatment | time until horses can be fitted with an orthopaedic hoof support ([2]; time after the start of treatment): roughly one week after the start of treatment
